Data from patent US20240132431A1, “METHOD FOR ALKYLATING ACIDIC FUNCTIONAL GROUP” (Chugai Seiyaku Kabushiki Kaisha, priority 2021, published 2024).

Molecular target: T1, Bcl-2 protein (Recombinant Human Bcl-2 Protein) (Homo sapiens, UniProt P10415)
T1 construct: purchased Novus NBP2-34889
Assay: Binding evaluation of mixture library compounds to Bcl-2 using AS-MS (affinity selection mass spectrometry)
Conditions: AS-MS, mixture of 1200 compounds, Bcl-2, ASMS Ratio(%)=(A−C)/B×100; for ASMS ratio (%) n = 1: replicate n = 1; for ASMS ratio (%) n = 2: replicate n = 2
In short: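 Readout is ASMS Ratio (%), (A−C)/B×100, from reversed-phase LC/MS of SEC-passed extracts, with protein-free unfiltered standard (B) and protein-free SEC blank (C). Recombinant human Bcl-2 at 20 μM final met ~1200 pooled compounds at […] each for 1 h, 23° C., dark, in Tris-HCl pH 7.4 buffer.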

T1 sequence (P10415 whole entry): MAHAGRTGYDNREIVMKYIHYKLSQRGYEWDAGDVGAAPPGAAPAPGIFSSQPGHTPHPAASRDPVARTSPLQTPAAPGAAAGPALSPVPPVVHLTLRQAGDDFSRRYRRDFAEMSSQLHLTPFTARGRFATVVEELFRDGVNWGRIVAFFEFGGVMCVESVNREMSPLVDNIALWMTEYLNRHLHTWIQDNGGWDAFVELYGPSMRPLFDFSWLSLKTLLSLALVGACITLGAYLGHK

Compound: CCOc1cccc(-c2csc(CN3CCN(c4ccc(C(=O)NCC56CC7CC(CC(C7)C5)C6)cc4)CC3)c2)c1 [B1A067-01, N-(1-Adamantylmethyl)-4-[4-[[4-(3-ethoxyphenyl)thiophen-2-yl]methyl]piperazin-1-yl]benzamide]
- ASMS ratio (%) n = 1: 3.6%
- ASMS ratio (%) n = 2: −7.8%

Compound: CCOc1cncc(-c2csc(CN3CCN(c4ccc(C(=O)NCC56CC7CC(CC(C7)C5)C6)cc4)CC3)c2)c1 [B1A068-01, N-(1-Adamantylmethyl)-4-[4-[[4-(5-ethoxypyridin-3-yl)thiophen-2-yl]methyl]piperazin-1-yl]benzamide]
- ASMS ratio (%) n = 1: 12.2%
- ASMS ratio (%) n = 2: 3.3%

Compound: CCOc1cccc(C#Cc2ccccc2CN2CCN(c3ccc(C(=O)NCC45CC6CC(CC(C6)C4)C5)cc3)CC2)c1 [B1A069-01, N-(1-Adamantylmethyl)-4-[4-[[2-[2-(3-ethoxyphenyl)ethynyl]phenyl]methyl]piperazin-1-yl]benzamide]
- ASMS ratio (%) n = 1: 8.3%
- ASMS ratio (%) n = 2: 0.8%

Compound: CCOc1cncc(C#Cc2ccccc2CN2CCN(c3ccc(C(=O)NCC45CC6CC(CC(C6)C4)C5)cc3)CC2)c1 [B1A070-01, N-(1-Adamantylmethyl)-4-[4-[[2-[2-(5-ethoxypyridin-3-yl)ethynyl]phenyl]methyl]piperazin-1-yl]benzamide]
- ASMS ratio (%) n = 1: 0.0%
- ASMS ratio (%) n = 2: 0.0%

Compound: CCOc1cccc(-c2ccccc2CN2CCN(c3ccc(C(=O)NCC45CC6CC(CC(C6)C4)C5)nn3)CC2)c1 [B1A071-01, N-(1-Adamantylmethyl)-6-[4-[[2-(3-ethoxyphenyl)phenyl]methyl]piperazin-1-yl]pyridazine-3-carboxamide]
- ASMS ratio (%) n = 1: −0.3%
- ASMS ratio (%) n = 2: −3.3%

Compound: CCOc1cncc(-c2ccccc2CN2CCN(c3ccc(C(=O)NCC45CC6CC(CC(C6)C4)C5)nn3)CC2)c1 [B1A072-01, N-(1-Adamantylmethyl)-6-[4-[[2-(5-ethoxypyridin-3-yl)phenyl]methyl]piperazin-1-yl]pyridazine-3-carboxamide]
- ASMS ratio (%) n = 1: 3.9%
- ASMS ratio (%) n = 2: −0.2%

Compound: CCOc1cccc(-c2ccc(CN3CCN(c4ccc(C(=O)NCC56CC7CC(CC(C7)C5)C6)nn4)CC3)cc2C)c1 [B1A073-01, N-(1-Adamantylmethyl)-6-[4-[[4-(3-ethoxyphenyl)-3-methylphenyl]methyl]piperazin-1-yl]pyridazine-3-carboxamide]
- ASMS ratio (%) n = 1: 3.2%
- ASMS ratio (%) n = 2: −4.7%

Compound: CCOc1cncc(-c2ccc(CN3CCN(c4ccc(C(=O)NCC56CC7CC(CC(C7)C5)C6)nn4)CC3)cc2C)c1 [B1A074-01, N-(1-Adamantylmethyl)-6-[4-[[4-(5-ethoxypyridin-3-yl)-3-methylphenyl]methyl]piperazin-1-yl]pyridazine-3-carboxamide]
- ASMS ratio (%) n = 1: 3.2%
- ASMS ratio (%) n = 2: −0.1%

Compound: CCOc1cccc(-c2ccc(CN3CCN(c4ccc(C(=O)NCC56CC7CC(CC(C7)C5)C6)nn4)CC3)cc2F)c1 [B1A077-01, N-(1-Adamantylmethyl)-6-[4-[[4-(3-ethoxyphenyl)-3-fluorophenyl]methyl]piperazin-1-yl]pyridazine-3-carboxamide]
- ASMS ratio (%) n = 1: 6.6%
- ASMS ratio (%) n = 2: −1.3%

Compound: CCOc1cncc(-c2ccc(CN3CCN(c4ccc(C(=O)NCC56CC7CC(CC(C7)C5)C6)nn4)CC3)cc2F)c1 [B1A078-01, N-(1-Adamantylmethyl)-6-[4-[[4-(5-ethoxypyridin-3-yl)-3-fluorophenyl]methyl]piperazin-1-yl]pyridazine-3-carboxamide]
- ASMS ratio (%) n = 1: 4.7%
- ASMS ratio (%) n = 2: 1.2%

Compound: CCOc1cccc(-c2ccc(CN3CCN(c4ccc(C(=O)NCC56CC7CC(CC(C7)C5)C6)nn4)CC3)c(OC)c2)c1 [B1A079-01, N-(1-Adamantylmethyl)-6-[4-[[4-(3-ethoxyphenyl)-2-methoxyphenyl]methyl]piperazin-1-yl]pyridazine-3-carboxamide]
- ASMS ratio (%) n = 1: 3.9%
- ASMS ratio (%) n = 2: −3.9%

Compound: CCOc1cncc(-c2ccc(CN3CCN(c4ccc(C(=O)NCC56CC7CC(CC(C7)C5)C6)nn4)CC3)c(OC)c2)c1 [B1A080-01, N-(1-Adamantylmethyl)-6-[4-[[4-(5-ethoxypyridin-3-yl)-2-methoxyphenyl]methyl]piperazin-1-yl]pyridazine-3-carboxamide]
- ASMS ratio (%) n = 1: 3.4%
- ASMS ratio (%) n = 2: 0.0%

Compound: CCOc1cccc(-c2cc(CN3CCN(c4ccc(C(=O)NCC56CC7CC(CC(C7)C5)C6)nn4)CC3)cc(OCC)c2)c1 [B1A081-01, N-(1-Adamantylmethyl)-6-[4-[[3-ethoxy-5-(3-ethoxyphenyl)phenyl]methyl]piperazin-1-yl]pyridazine-3-carboxamide]
- ASMS ratio (%) n = 1: −10.9%
- ASMS ratio (%) n = 2: −5.5%

Compound: CCOc1cncc(-c2cc(CN3CCN(c4ccc(C(=O)NCC56CC7CC(CC(C7)C5)C6)nn4)CC3)cc(OCC)c2)c1 [B1A082-01, N-(1-Adamantylmethyl)-6-[4-[[3-ethoxy-5-(5-ethoxypyridin-3-yl)phenyl]methyl]piperazin-1-yl]pyridazine-3-carboxamide]
- ASMS ratio (%) n = 1: 3.0%
- ASMS ratio (%) n = 2: 0.2%

Compound: CCOc1cccc(-c2cc(CN3CCN(c4ccc(C(=O)NCC56CC7CC(CC(C7)C5)C6)nn4)CC3)cc(OC(C)C)c2)c1 [B1A083-01, N-(1-Adamantylmethyl)-6-[4-[[3-(3-ethoxyphenyl)-5-propan-2-yloxyphenyl]methyl]piperazin-1-yl]pyridazine-3-carboxamide]
- ASMS ratio (%) n = 1: −0.3%
- ASMS ratio (%) n = 2: 0.5%

Compound: CCOc1cncc(-c2cc(CN3CCN(c4ccc(C(=O)NCC56CC7CC(CC(C7)C5)C6)nn4)CC3)cc(OC(C)C)c2)c1 [B1A084-01, N-(1-Adamantylmethyl)-6-[4-[[3-(5-ethoxypyridin-3-yl)-5-propan-2-yloxyphenyl]methyl]piperazin-1-yl]pyridazine-3-carboxamide]
- ASMS ratio (%) n = 1: 2.1%
- ASMS ratio (%) n = 2: −2.7%

Compound: CCOc1cccc(-c2cc(OC)c(CN3CCN(c4ccc(C(=O)NCC56CC7CC(CC(C7)C5)C6)nn4)CC3)c(OC)c2)c1 [B1A085-01, N-(1-Adamantylmethyl)-6-[4-[[4-(3-ethoxyphenyl)-2,6-dimethoxyphenyl]methyl]piperazin-1-yl]pyridazine-3-carboxamide]
- ASMS ratio (%) n = 1: 10.6%
- ASMS ratio (%) n = 2: 10.8%

Compound: CCOc1cncc(-c2cc(OC)c(CN3CCN(c4ccc(C(=O)NCC56CC7CC(CC(C7)C5)C6)nn4)CC3)c(OC)c2)c1 [B1A086-01, N-(1-Adamantylmethyl)-6-[4-[[4-(5-ethoxypyridin-3-yl)-2,6-dimethoxyphenyl]methyl]piperazin-1-yl]pyridazine-3-carboxamide]
- ASMS ratio (%) n = 1: 0.0%
- ASMS ratio (%) n = 2: −14.8%
